System: T1, ANT(6)-If
T1 construct: full-length ORF (855 bp, TTG start codon); 284 residues; His6 tag removed with thrombin; likely homodimer by clear-native PAGE
Test: coupled UDP-glucose pyrophosphorylase / phosphoglucomutase / G6PDH assay, NADPH at […] nm
Assay type: biochemical, Paenibacillus thiaminolyticus
Details: 1 mM ATP, 10 mM MgCl2, 50 mM HEPES pH 7.5; temperature not given

## CN[C@@H]1[C@H](O[C@H]2[C@H](O[C@H]3[C@H](O)[C@@H](O)[C@H](N=C(N)N)[C@@H](O)[C@@H]3N=C(N)N)O[C@@H](C)[C@]2(O)C=O)O[C@@H](CO)[C@H](O)[C@H]1O [streptomycin]
  Km: 12.4 µM

From PMC10343464, “Identification and characterization of a novel aminoglycoside O-nucleotidyltransferase ANT(6)-If from Paenibacillus thiaminolyticus PATH554” (Frontiers in Microbiology, 2023)
